# Patent publication US9440962B2, “Benzisoxazoles” (Hoffmann-La Roche Inc., priority 2012, dated 2016)
# How the values were obtained:
# [1] = system: human embryonic stem cell derived neural stem cells (NSCs); assay: Neural stem cell proliferation assay (neurogenesis assay, ATP levels by CellTiterGlo); type: cell-based; conditions: 96 h, compound concentration at which 150% activity of control (100%) is reached, ATP levels after 4 days incubation, dose response 8 μM to 8 nM
# Protocol: Neural Stem Cell Proliferation Assay
# Neurogenic properties of small molecules are determined based on the proliferation of human embryonic stem cell derived neural stem cells (NSCs) which were derived via a dual smad inhibition as previously described (Chambers, S. M., et al., Highly efficient neural conversion of human ES and iPS cells by dual inhibition of SMAD signaling, Nature biotechnology, 2009. 27(3): p. 275-80.)
# Compounds respond is measured by the increase in cells based on ATP levels (Promega:CellTiterGlo®) after an incubation period of 4 days.
# NSCs are thawed and expanded over 3 passages. On the 14th day, NSCs are seeded in Polyornithin/Laminin coated 384 well plates at a cell density of 21′000 cells/cm^2 in a media volume of 38 μl.
# 4 hours after cell seeding, compound solutions are added at a volume of 2 μl. Stock solutions of the compounds (water, 5% DMSO) are diluted to obtain a dose response (11 points, dilution factor is 2), ranging from 8 μM to 8 nM. Controls are run to consistently determine the neurogenic properties of the cells: • Negative (neutral) control is cell culture Media (final DMSO concentration: 0.25%). Positive controls are: • 1. cell culture Media+100 ng/ml FGF2 (final DMSO concentration: 0.1%) • 2. cell culture Media+20 ng/ml EGF (final DMSO concentration: 0.1%) • 3. cell culture Media+100 ng/ml Wnt3a (final DMSO concentration: 0.1%)
# After 4 days incubation at 37° C., 5% CO2, the amount of ATP per well is quantified. The ATP concentration is proportional to the cell number. ATP is quantified by using the Promega CellTiterGlo® kit. The CellTiterGlo® reagents contain a cell lysis buffer, a thermo stable luciferase (UltraGlo™ recombinant luciferase), magnesium and luciferin. Luciferin reacts with ATP producing oxyluciferin, AMP and light. The luminescence signal is proportional to the ATP content.
# The value of negative (neutral) control is determined for each assay plate by taking the average of 16 negative control wells. The neurogenic compound response is calculated for each compound as (compound/Negative Control)* 100.
# The values of EC150 from the dose response curve are determined for each test compound. The EC150 is the compound concentration at which 150% activity of control (100%) is reached.
melting point,Compound,EC (150% of control) [1]
171 °C,"Fc1ccc(-c2onc3ccc(-c4ccnn4-c4ccccc4F)cc23)cc1 [Example 1, 3-(4-Fluoro-phenyl)-5-[2-(2-fluoro-phenyl)-2H-pyrazol-3-yl]-benzo[c]isoxazole]",0.12 µM
186 °C,"Fc1cccc(-c2onc3ccc(-c4ccnn4-c4ccccc4F)cc23)c1 [Example 2, 3-(3-Fluoro-phenyl)-5-[2-(2-fluoro-phenyl)-2H-pyrazol-3-yl]-benzo[c]isoxazole]",0.29 µM
173 °C,"Cc1ccc(-c2onc3ccc(-c4ccnn4-c4ccccc4F)cc23)cc1 [Example 3, 5-[2-(2-Fluoro-phenyl)-2H-pyrazol-3-yl]-3-p-tolyl-benzo[c]isoxazole]",0.12 µM
156 °C,"Fc1ccccc1-n1nccc1-c1ccc2noc(-c3ccc(C(F)(F)F)cc3)c2c1 [Example 4, 5-[2-(2-Fluoro-phenyl)-2H-pyrazol-3-yl]-3-(4-trifluoromethyl-phenyl)-benzo[c]isoxazole]",0.92 µM
191 °C,"Fc1ccccc1-n1nccc1-c1ccc2noc(-c3ccc(Cl)cc3)c2c1 [Example 5, 3-(4-Chloro-phenyl)-5-[2-(2-fluoro-phenyl)-2H-pyrazol-3-yl]-benzo[c]isoxazole]",0.033 µM
134 °C,"COc1ccc(-c2onc3ccc(-c4ccnn4-c4ccccc4F)cc23)cc1 [Example 6, 5-[2-(2-Fluoro-phenyl)-2H-pyrazol-3-yl]-3-(4-methoxy-phenyl)-benzo[c]isoxazole]",0.073 µM
202 °C,"Fc1ccccc1-n1nccc1-c1ccc2noc(-c3ccc(Br)cc3)c2c1 [Example 7, 3-(4-Bromo-phenyl)-5-[2-(2-fluoro-phenyl)-2H-pyrazol-3-yl]benzo[c]isoxazole]",0.054 µM
159 °C,"Fc1ccc(-c2onc3ccc(-c4ccnn4-c4ccc(F)cc4)cc23)cc1 [Example 8, 3-(4-Fluoro-phenyl)-5-[2-(4-fluoro-phenyl)-2H-pyrazol-3-yl]-benzo[c]isoxazole]",0.25 µM
175 °C,"Fc1ccc(-c2onc3ccc(-c4ccnn4-c4cccc(F)c4)cc23)cc1 [Example 9, 3-(4-Fluoro-phenyl)-5-[2-(3-fluoro-phenyl)-2H-pyrazol-3-yl]-benzo[c]isoxazole]",2.8 µM
176 °C,"Fc1ccc(-n2nccc2-c2ccc3noc(-c4cccc(F)c4)c3c2)cc1 [Example 10, 3-(3-Fluoro-phenyl)-5-[2-(4-fluoro-phenyl)-2H-pyrazol-3-yl]-benzo[c]isoxazole]",0.56 µM
158 °C,"Cc1ccc(-c2onc3ccc(-c4ccnn4-c4ccc(F)cc4)cc23)cc1 [Example 11, 5-[2-(4-Fluoro-phenyl)-2H-pyrazol-3-yl]-3-p-tolyl-benzo[c]isoxazole]",0.23 µM
188 °C,"Fc1ccc(-n2nccc2-c2ccc3noc(-c4ccc(Cl)cc4)c3c2)cc1 [Example 12, 3-(4-Chloro-phenyl)-5-[2-(4-fluoro-phenyl)-2H-pyrazol-3-yl]-benzo[c]isoxazole]",0.26 µM
153 °C,"COc1ccc(-c2onc3ccc(-c4ccnn4-c4ccc(F)cc4)cc23)cc1 [Example 13, 5-[2-(4-Fluoro-phenyl)-2H-pyrazol-3-yl]-3-(4-methoxy-phenyl)-benzo[c]isoxazole]",0.39 µM
173 °C,"Cc1ccc(-n2nccc2-c2ccc3noc(-c4ccc(F)cc4)c3c2)cc1 [Example 14, 3-(4-Fluoro-phenyl)-5-(2-p-tolyl-2H-pyrazol-3-yl)-benzo[c]isoxazole]",0.091 µM
207 °C,"Cc1ccc(-n2nccc2-c2ccc3noc(-c4cccc(F)c4)c3c2)cc1 [Example 15, 3-(3-Fluoro-phenyl)-5-(2-p-tolyl-2H-pyrazol-3-yl)-benzo[c]isoxazole]",0.14 µM
